This series is described as follows: Solubility of the compound at pH 7.4. It is filed as physicochemical. The settings on record: buffer.

Molecules are shown by their SMILES.

What is called solubility is how much of the substance goes into solution per volume. Lower therefore signals a poorly soluble substance. As to `CCCCNc1ncc2c(-c3ccc(CN4CCN(C)CC4)cc3)cn([C@H]3CC[C@H](O)CC3)c2n1.Cl`, the solubility turned out to be 47 mg/mL.

The values above are taken from ChEMBL document CHEMBL3864173, “Design and Synthesis of Novel Macrocyclic Mer Tyrosine Kinase Inhibitors” (ACS Med Chem Lett, 2016).
